According to ChEMBL document CHEMBL3297661, “1-Substituted-5-[(3,5-dinitrobenzyl)sulfanyl]-1H-tetrazoles and their isosteric analogs: A new class of selective antitubercular agents active against drug-susceptible and multidrug-resistant mycobacteria” (Eur J Med Chem, 2014):
Values after ≈ are worked out from the molar mass of the structure shown.

Test system: not listed separately
Experiment: Cytotoxicity against MDCK2 cells assessed as reduction in cell viability after 48 hrs by MTT assay
Type: cell-based
Conditions: Canis lupus familiaris, MDCK-II

| Structure (SMILES) | IC50 [µM] |
| --- | --- |
| O=[N+]([O-])c1cc(CSc2nnnn2C2CCCCC2)cc([N+](=O)[O-])c1 | > 30 |

Test system: Klebsiella pneumoniae
Experiment: Antibacterial activity against extended spectrum beta-lactamase producing Klebsiella pneumoniae J 14368/08 after 24 hrs by broth microdilution method
Type: functional
Conditions: J 14368/08, 24 h

| Structure (SMILES) | IC95 [µM] |
| --- | --- |
| O=[N+]([O-])c1cc(CSc2nnnn2C2CCCCC2)cc([N+](=O)[O-])c1 | > 500 |

Test system: Escherichia coli
Experiment: Antibacterial activity against Escherichia coli ATCC 8739 after 24 hrs by broth microdilution method
Type: functional
Conditions: ATCC 8739, ATCC 8739, 24 h

| Structure (SMILES) | IC95 [µM] |
| --- | --- |
| O=[N+]([O-])c1cc(CSc2nnnn2C2CCCCC2)cc([N+](=O)[O-])c1 | > 500 |

Test system: HeLa
Experiment: Cytotoxicity against human HeLa cells assessed as reduction in cell viability after 48 hrs by MTT assay
Type: cell-based
Conditions: not given

| Structure (SMILES) | IC50 [µM] |
| --- | --- |
| O=[N+]([O-])c1cc(CSc2nnnn2C2CCCCC2)cc([N+](=O)[O-])c1 | > 30 |

Test system: not listed separately
Experiment: Cytotoxicity against human HuH7 cells assessed as reduction in cell viability after 48 hrs by MTT assay
Type: cell-based
Conditions: Huh-7, 48 h

| Structure (SMILES) | IC50 [µM] |
| --- | --- |
| O=[N+]([O-])c1cc(CSc2nnnn2C2CCCCC2)cc([N+](=O)[O-])c1 | > 30 |

Test system: Staphylococcus aureus
Experiment: Antibacterial activity against Staphylococcus aureus ATCC 6538 after 48 hrs by broth microdilution method
Type: functional
Conditions: ATCC 6538, 48 h

| Structure (SMILES) | IC95 [µM] |
| --- | --- |
| O=[N+]([O-])c1cc(CSc2nnnn2C2CCCCC2)cc([N+](=O)[O-])c1 | > 500 |

Test system: Klebsiella pneumoniae
Experiment: Antibacterial activity against Klebsiella pneumoniae D 11750/08 after 24 hrs by broth microdilution method
Type: functional
Conditions: D 11750/08, 24 h

| Structure (SMILES) | IC95 [µM] |
| --- | --- |
| O=[N+]([O-])c1cc(CSc2nnnn2C2CCCCC2)cc([N+](=O)[O-])c1 | > 500 |

Test system: Trichosporon asahii
Experiment: Antifungal activity against Trichosporon asahii 1188 after 24 hrs by broth microdilution method
Type: functional
Conditions: Trichosporon asahii, 1188, 24 h

| Structure (SMILES) | IC80 [µM] |
| --- | --- |
| O=[N+]([O-])c1cc(CSc2nnnn2C2CCCCC2)cc([N+](=O)[O-])c1 | > 500 |

Test system: Candida tropicalis
Experiment: Antifungal activity against Candida tropicalis 156 after 24 hrs by broth microdilution method
Type: functional
Conditions: Candida tropicalis, 156, 24 h

| Structure (SMILES) | IC80 [µM] |
| --- | --- |
| O=[N+]([O-])c1cc(CSc2nnnn2C2CCCCC2)cc([N+](=O)[O-])c1 | > 500 |

Test system: HepG2
Experiment: Cytotoxicity against human HepG2 cells assessed as reduction in cell viability after 48 hrs by MTT assay
Type: cell-based
Conditions: HepG2, 48 h

| Structure (SMILES) | IC50 [µM] |
| --- | --- |
| O=[N+]([O-])c1cc(CSc2nnnn2C2CCCCC2)cc([N+](=O)[O-])c1 | > 30 |

Test system: Enterococcus faecalis
Experiment: Antibacterial activity against Enterococcus faecalis J 14365/08 after 48 hrs by broth microdilution method
Type: functional
Conditions: J 14365/08, 48 h

| Structure (SMILES) | IC95 [µM] |
| --- | --- |
| O=[N+]([O-])c1cc(CSc2nnnn2C2CCCCC2)cc([N+](=O)[O-])c1 | > 500 |

Test system: Trichophyton mentagrophytes
Experiment: Antifungal activity against Trichophyton mentagrophytes 445 after 72 hrs by broth microdilution method
Type: functional, organism-based
Conditions: Trichophyton mentagrophytes, 445, 72 h

| Structure (SMILES) | IC50 [µM] |
| --- | --- |
| O=[N+]([O-])c1cc(CSc2nnnn2C2CCCCC2)cc([N+](=O)[O-])c1 | > 500 |

Test system: Mycobacterium kansasii
Experiment: Antimycobacterial activity against Mycobacterium kansasii 6509/96 after 7 days by micromethod
Type: functional
Conditions: 6509/96, 168 h

| Structure (SMILES) | MIC [µM] |
| --- | --- |
| O=[N+]([O-])c1cc(CSc2nnnn2C2CCCCC2)cc([N+](=O)[O-])c1 | 2 (≈ 0.729 µg/mL) |

Test system: Pseudomonas aeruginosa
Experiment: Antibacterial activity against Pseudomonas aeruginosa ATCC 9027 after 24 hrs by broth microdilution method
Type: functional
Conditions: ATCC 9027, 24 h

| Structure (SMILES) | IC95 [µM] |
| --- | --- |
| O=[N+]([O-])c1cc(CSc2nnnn2C2CCCCC2)cc([N+](=O)[O-])c1 | > 500 |

Test system: Pichia kudriavzevii
Experiment: Antifungal activity against Candida krusei E28 after 24 hrs by broth microdilution method
Type: functional
Conditions: E28, 24 h

| Structure (SMILES) | IC80 [µM] |
| --- | --- |
| O=[N+]([O-])c1cc(CSc2nnnn2C2CCCCC2)cc([N+](=O)[O-])c1 | > 500 |

Test system: Trichophyton mentagrophytes
Experiment: Antifungal activity against Trichophyton mentagrophytes 445 after 120 hrs by broth microdilution method
Type: functional, organism-based
Conditions: Trichophyton mentagrophytes, 445, 120 h

| Structure (SMILES) | IC50 [µM] |
| --- | --- |
| O=[N+]([O-])c1cc(CSc2nnnn2C2CCCCC2)cc([N+](=O)[O-])c1 | > 500 |

Test system: Enterococcus faecalis
Experiment: Antibacterial activity against Enterococcus faecalis J 14365/08 after 24 hrs by broth microdilution method
Type: functional
Conditions: J 14365/08, 24 h

| Structure (SMILES) | IC95 [µM] |
| --- | --- |
| O=[N+]([O-])c1cc(CSc2nnnn2C2CCCCC2)cc([N+](=O)[O-])c1 | > 500 |

Test system: Mycobacterium kansasii
Experiment: Antimycobacterial activity against Mycobacterium kansasii 6509/96 after 21 days by micromethod
Type: functional
Conditions: 6509/96, 504 h

| Structure (SMILES) | MIC [µM] |
| --- | --- |
| O=[N+]([O-])c1cc(CSc2nnnn2C2CCCCC2)cc([N+](=O)[O-])c1 | 4 (≈ 1.46 µg/mL) |

Test system: Mycobacterium kansasii
Experiment: Antimycobacterial activity against Mycobacterium kansasii CNCTC My 235/80 after 21 days by micromethod
Type: functional
Conditions: CNCTC My 235/80, 504 h

| Structure (SMILES) | MIC [µM] |
| --- | --- |
| O=[N+]([O-])c1cc(CSc2nnnn2C2CCCCC2)cc([N+](=O)[O-])c1 | 4 (≈ 1.46 µg/mL) |

Test system: Lichtheimia corymbifera
Experiment: Antifungal activity against Absidia corymbifera 272 after 24 hrs by broth microdilution method
Type: functional, organism-based
Conditions: Lichtheimia corymbifera, 272, 24 h

| Structure (SMILES) | IC50 [µM] |
| --- | --- |
| O=[N+]([O-])c1cc(CSc2nnnn2C2CCCCC2)cc([N+](=O)[O-])c1 | > 500 |

Test system: Aspergillus fumigatus
Experiment: Antifungal activity against Aspergillus fumigatus 231 after 24 hrs by broth microdilution method
Type: functional, organism-based
Conditions: Aspergillus fumigatus, 231, 24 h

| Structure (SMILES) | IC50 [µM] |
| --- | --- |
| O=[N+]([O-])c1cc(CSc2nnnn2C2CCCCC2)cc([N+](=O)[O-])c1 | > 500 |

Test system: not listed separately
Experiment: Cytotoxicity against human HepG2 cells assessed as cell viability at 30 uM after 48 hrs by MTT assay
Type: cell-based
Conditions: read-out: Activity

| Structure (SMILES) | viability at 48 h, 30 µM [%] |
| --- | --- |
| O=[N+]([O-])c1cc(CSc2nnnn2C2CCCCC2)cc([N+](=O)[O-])c1 | 88 |

Test system: Mycobacterium kansasii
Experiment: Antimycobacterial activity against Mycobacterium kansasii CNCTC My 235/80 after 14 days by micromethod
Type: functional
Conditions: CNCTC My 235/80, 336 h

| Structure (SMILES) | MIC [µM] |
| --- | --- |
| O=[N+]([O-])c1cc(CSc2nnnn2C2CCCCC2)cc([N+](=O)[O-])c1 | 4 (≈ 1.46 µg/mL) |

Test system: Klebsiella pneumoniae
Experiment: Antibacterial activity against Klebsiella pneumoniae D 11750/08 after 48 hrs by broth microdilution method
Type: functional
Conditions: D 11750/08, 48 h

| Structure (SMILES) | IC95 [µM] |
| --- | --- |
| O=[N+]([O-])c1cc(CSc2nnnn2C2CCCCC2)cc([N+](=O)[O-])c1 | > 500 |

Test system: Candida tropicalis
Experiment: Antifungal activity against Candida tropicalis 156 after 48 hrs by broth microdilution method
Type: functional
Conditions: Candida tropicalis, 156, 48 h

| Structure (SMILES) | IC80 [µM] |
| --- | --- |
| O=[N+]([O-])c1cc(CSc2nnnn2C2CCCCC2)cc([N+](=O)[O-])c1 | > 500 |
